Drawing on patent US4705788A, “Novel antibacterial 7-amino-1(substituted cyclopropyl)-1,4-dihydro-4-oxo-3-quinolinecarboxylic acids” (Bayer Aktiengesellschaft, priority 1985, dated 1987), this text covers MIC for three compounds.

What is called MIC is the lowest concentration found to suppress growth. Low values mean greater potency, high ones weaker potency.

Common to all, as to assay: MIC, agar dilution test (Isosensitest medium), Denley multipoint inoculator
Common to all, as to format: cell-based
For orientation: In agar dilution the substance is mixed into plates at graded concentrations.

One assay has as its system E. coli T 7. Particulars: Escherichia coli, T7, strain E. coli T 7. The text has this: (§1) Agar dilution test (Isosensitest medium); Denley multipoint inoculator
For a further assay, the system named is Klebsiella 8085. The conditions noted are these: strain Klebsiella 8085.
Description: as §1

The test system of the next assay is E. coli Neumann. The conditions noted are these: Escherichia coli, strain E. coli Neumann.
Description: as §1

The subject of another assay is E. coli A 261. The conditions noted are these: Escherichia coli, A261, strain E. coli A 261.
Description: as §1

Converted amounts (≈) assume the structure as drawn. Bounds are passed on as bounds.

On to `CC1CN(c2cc3c(cc2F)c(=O)c(C(=O)O)cn3C2(C)CC2)CCN1` (stereo not drawn) [Example 3], for which the MIC turned out to be 0.03 µg/mL (≈ 0.0835 µM) against E. coli T 7, 0.06 µg/mL (≈ 0.167 µM) in the assay on Klebsiella 8085, 0.06 µg/mL (≈ 0.167 µM) with E. coli Neumann and 0.03 µg/mL (≈ 0.0835 µM) in the assay on E. coli A 261.

With `CC1(n2cc(C(=O)O)c(=O)c3cc(F)c(N4CCNCC4)cc32)CC1` [Example 1, 6-fluoro-1,4-dihydro-1-(1-methylcyclopropyl)-4-oxo-7-(1-piperazinyl)-3-quinolinecarboxylic acid], the MIC in the assay with E. coli T 7 was ≤ 0.015 µg/mL; against Klebsiella 8085 it was 0.03 µg/mL (≈ 0.0869 µM); with E. coli Neumann, 0.06 µg/mL (≈ 0.174 µM); in the assay on E. coli A 261, ≤ 0.015 µg/mL.

As to `CCn1cc(C(=O)O)c(=O)c2cc(F)c(N3CCNCC3)cc21` [Norfloxacin, reference compound], the MIC in the assay on E. coli T 7 was 0.06 µg/mL (≈ 0.188 µM); against Klebsiella 8085 it was 0.125 µg/mL (≈ 0.391 µM); against E. coli Neumann it was 0.06 µg/mL (≈ 0.188 µM); with E. coli A 261, 0.03 µg/mL (≈ 0.0939 µM).
